The values below are quoted from earlier work in patent US20110151017A1, “OPHTHALMIC SOLUTIONS WITH IMPROVED DISINFECTION PROFILES” (priority 2009, published 2011).

The conditions of the data set: aqueous solution, forming tetrahydroxyborate.

Turning to `OB(O)O` [Boric acid], the Ka was 5.8e-10 mol/L.
